Paper PMC11225352, “A multicenter, randomized, double-blind, placebo-controlled ascending dose study to evaluate the safety, tolerability, pharmacokinetics (PK) and pharmacodynamic (PD) effects of Posiphen in subjects with early Alzheimer’s Disease” (Alzheimer's Research & Therapy, 2024)

Columns and labels:
[1] = tested on: cholinesterase; design: method as in PMID 11404470; details: cited from earlier work
[2] = tested on: sAPPα; assay: CSF sAPPα level, screening to day 21 (MSD immunoassay); type: in vivo, human; details: ANOVA with age and sex as covariates; p = 0.38
Procedure: (§1) For biochemical analysis to derive data for SILK, ^13C6-leucine was analyzed in plasma and CSF by mass spectrometry, and Aβ peptides in CSF were analyzed by immunoprecipitation-mass spectrometry (IP-MS) as previously described, by C2N Diagnostics (St Louis, MO). CSF levels of sAPPα, sAPPβ, Aβ38, 40 and 42 were analyzed by the ADCS Biomarker Core using Mesoscale Discovery (MSD) electrochemiluminescent assays (Mesoscale Discovery, Rockville, MD). Levels of Posiphen and its N1 and N8 metabolites in plasma and CSF were measured by Charles River Laboratories (Montreal, CA) by high-performance liquid chromatographic mass spectrometry, with use of deuterated Posiphen (procured by Charles River Laboratories) as an internal standard.
(§2) Changes in CSF biomarkers from the screening to confinement (sample at time of placement of catheter) were compared in the treatment and placebo groups by ANOVA, with models that included age, sex and baseline MMSE, and further analysis stratified by treatment dose. A similar approach was taken to analyze changes in MMSE, ADAS-cog and NPI. Data were analyzed using R (version 4.2.2).

[3] = tested on: Aβ40; assay: CSF Aβ40 level, screening to day 21 (MSD immunoassay); type: in vivo, human; details: ANOVA with age and sex as covariates; p = 0.39
Procedure: as §1, §2

[4] = tested on: APP; assay: Post hoc comprehensive compartmental modeling of APP production rate from SILK data; type: in vivo, human
Procedure: For SILK, the fraction of labeled Aβ for Aβ38, 40, and 42 during 36 h after administration of study drug for each subject was calculated, as described. The FSR measures were calculated by fitting a line to the upslope of the CSF Aβ labeling data. It was assumed that the upslope occurred between hours 6–16 h after the start of confinement. FSR for treated and untreated subjects were compared by analysis of variance (ANOVA). The percentage of newly synthesized and degraded Aβ was estimated over 36 h by multiplying the […] concentration of Aβ measured at the start of confinement (i.e. at catheter placement; time = 0) by the percentage of Aβ that contains ^13C6-leucine at each time point. This can be used to estimate the AUC of the drug for decreasing the amount of newly produced Aβ [24]. As a post hoc analysis, the FSR measurement was also performed with different assumptions: the timeframe for measuring the upslope was automatically detected based on the slope of the SILK curve (see supplementary materials for method and code). As an additional post hoc analysis, a newer model for SILK that take into count the multiple compartments and CSF and other spaces involved in APP metabolism was also used to estimate APP production rates, as described below.
APP and Aβ production and clearance rates were determined using a recently described comprehensive model. The model accounts for the bi-hourly withdrawal of 6 mL of CSF, which is known to alter the lumbar CSF concentration of Aβ [25]. The model estimates rates of APP production, enzymatic production of Aβ, transport of Aβ from interstitial fluid (ISF) to CSF, enzymatic degradation of Aβ, blood-brain barrier transport of Aβ, as well as CSF mixing throughout the subarachnoid space (SAS) and clearance of CSF from cranial and spinal subarachnoid space (SAS). For the DISCOVER trial, MRI volumetric scans were not available, so CSF volumes (cranial, cisternal and ventricular) were estimated based on the subject’s age using data from the previous study (see Supplementary Materials). […]

[5] = tested on: Aβ38; assay: CSF Aβ38 level, screening to day 21 (MSD immunoassay); type: in vivo, human; details: ANOVA with age and sex as covariates; p = 0.47
Procedure: as §1, §2

[6] = tested on: sAPPα, sAPPβ and total tau; design: method as in PMID 22791904; details: four MCI subjects, 60 mg four times per day for 10 days; cited from earlier work

For `CN1CC[C@]2(C)c3cc(OC(=O)Nc4ccccc4)ccc3N(C)[C@H]12` [Posiphen], the anticholinesterase activity [1] is given as “does not”, the “CSF sAPPα, Treatment difference (Posiphen – placebo)” value [2] is given as 9.99 (10.8) p = 0.38 pg/mL and the “CSF Aβ40, Treatment difference (Posiphen – placebo)” value [3] is given as -1.4 (1.57) p = 0.39 pg/mL. For the same compound, the “APP production, placebo vs 120 mg per day group” value ([4]; model with pre-drug lumbar CSF concentration as covariate) was “showed significance”, the APP production rate ([4]; single 180 mg per day subject) was “low” and the APP production rates ([4]; subjects receiving 120 or 180 mg per day, differences not significant by non-parametric analysis) was “trended lower”. For the same compound, the “CSF Aβ38, Treatment difference (Posiphen – placebo)” value [5] was -0.202 (0.27) p = 0.47 pg/mL and the “mean CSF sAPPα, sAPPβ and total tau at 10 days compared to pretreatment” value [6] was “decreased”.
